The values that follow are results of earlier work, collected in US7799335B2, “Differential delivery of nitric oxide” (Boston Scientific Scimed, Inc., priority 2001, dated 2010).

The test system of one series is vasodilation. The settings on record: compared with SNAP.
For another series, the system named is platelet aggregation. The settings on record: compared with SNAP.
Series [1] concerns human aortic vascular smooth muscle cells. The settings on record: exogenously and endogenously produced nitric oxide, 10^−5 to 10^−3 molar; Tanner et al. 2000.
For another series, the system named is endothelial cells. The settings on record: low levels of nitric oxide (SNP 10-50 uM); Rossig et al. 2000.

For `N[C@@H](CCC(=O)N[C@@H](CSN=O)C(=O)NCC(=O)O)C(=O)O` [GSN70, S-nitrosoglutathione], the effectiveness as vasodilator entry in the series on vasodilation is “less effective vasodilator than SNAP”. The “inhibition of platelet aggregation” value in the series with platelet aggregation is on record as “the opposite is true”.

For `[N]=O` [nitric oxide], the “effect on smooth muscle cell proliferation” value in series [1] is “prevented smooth muscle cell proliferation by inducing G1 phase arrest”. Besides, the “effect on TNF-alpha induced apoptosis” value in the series with endothelial cells is given as “prevented TNF-alpha induced apoptosis in endothelial cells”.
